Experimental data published in patent US20170173069A1, “METHODS OF NUCLEOTIDE AND GENE DELIVERY USING MEMBRANE TRANSPORT MECHANISMS” (The Charlotte Mecklenburg Hospital Authority d/b/a …, priority 2015, published 2017).

Tested on: dystrophin exon 23
Experiment: Dystrophin expression (immunostaining of muscle sections) in mdx dystrophic mice after antisense oligonucleotide PMOE23
Type: in vivo, mouse
Method: The mdx dystrophic mouse contains a nonsense point mutation in the dystrophin exon 23. PMOE23 (5′[…]-3′) (SEQ ID NO:1) oligo binds to the exon-intron boundary of the dystrophin exon 23, resulting in the skip of the exon 23 and restoration of the reading frame and the expression of the dystrophin protein. The mdx mice are treated with antisense oligonuleotide PMOE23 (5′[…]-3′) (SEQ ID NO:1) via intravenous injection and the muscles are examined 2 weeks later. Saline treated, mouse was treated with saline without PMO as control. PMO only, mouse was treated with single dose 1 mg PMO only. PMO+Repa, mouse was treated with single dose 1 mg PMO and Repaglinide. 100 microgram Repaglinide was gavaged before the injection of PMO. Quad, quadriceps. Blue are DAPI stained nuclei; red staining representing membrane localized dystrophin expression.
A comparison of levels of dystrophin expression after treatment with morpholino antisense oligonucleotide PMOE23 and Eicosapentaenoic acid (EPA)-linked PMOE23 in 4-6 weeks old mdx dystrophic mice. […] PMOE23 (5′[…]-3′) (SEQ ID NO:1) oligo binds to the exon-intron boundary of the dystrophin exon 23, resulting in the skip of the exon 23 and restoration of the reading frame and the expression of the dystrophin protein. […] 6 μm sections were cut from freshly frozen muscles and stained with rabbit anti-dystrophin antibody P7 and detected with goat-anti-rabbit Ig-Alexa 594. […] Images were taken by Olympus BX52 fluorescence microscope.
A comparison of levels of dystrophin expression after treatment with morpholino antisense oligonucleotide PMOE23 and PMOE23 in combination with the use of insulin in 4-6 weeks old mdx dystrophic mice. […] PMOE23 (5′[…]-3′) (SEQ ID NO:1) oligo binds to the exon-intron boundary of the dystrophin exon 23, resulting in the skip of the exon 23 and restoration of the reading frame and the expression of the dystrophin protein. […] 6 μm sections were cut from freshly frozen muscles and stained with rabbit anti-dystrophin antibody P7 and detected with goat-anti-rabbit Ig-Alexa 594. […] Images were taken by Olympus BX52 fluorescence microscope.

**Q.** What does the source list for “PMO only: morpholino antisense oligonucleotide PMOE23, 5′GGCCAAACCTCGGCTTACCTGAAAT-3′ (SEQ ID NO:1), skips dystrophin exon 23 (all phosphorodiamidate morpholino (PMO))”?
**A.** number of dystrophin positive fibers / membrane localized dystrophin expression in muscle (Example 1, FIG. 1: mdx mice, single dose 1 mg PMO intravenous, 100 microgram Repaglinide gavaged before PMO, muscles examined 2 weeks later): only a few muscle fibers expressing weak dystrophin; number of dystrophin positive fibers / membrane localized dystrophin expression in muscle (Example 2, FIG. 2: 4-6 weeks old mdx mice, single intravenous dose 1 mg PMOE23 or 0.7 mg EPA-linked PMOE23, muscles examined 2 weeks later, antibody P7): only a few muscle fibers expressing weak dystrophin; number of dystrophin positive fibers / membrane localized dystrophin expression in muscle (Example 3, FIG. 3: 4-6 weeks old mdx mice, single intravenous dose 1 mg PMOE23, 0.5 unit Insulin subcutaneously immediately after PMO, muscles examined 2 weeks later, antibody P7): only a few muscle fibers expressing weak dystrophin
